In publication PMC4498724 (Drug Design, Development and Therapy, 2015):

Tests used:
[1] = molecular target: T1, ABCG2 (Homo sapiens, UniProt Q9UNQ0); experiment: Inhibition of ABCG2-mediated mitoxantrone efflux in ABCG2-transfected cells; format: cell-based
T1 sequence (Q9UNQ0 1-655): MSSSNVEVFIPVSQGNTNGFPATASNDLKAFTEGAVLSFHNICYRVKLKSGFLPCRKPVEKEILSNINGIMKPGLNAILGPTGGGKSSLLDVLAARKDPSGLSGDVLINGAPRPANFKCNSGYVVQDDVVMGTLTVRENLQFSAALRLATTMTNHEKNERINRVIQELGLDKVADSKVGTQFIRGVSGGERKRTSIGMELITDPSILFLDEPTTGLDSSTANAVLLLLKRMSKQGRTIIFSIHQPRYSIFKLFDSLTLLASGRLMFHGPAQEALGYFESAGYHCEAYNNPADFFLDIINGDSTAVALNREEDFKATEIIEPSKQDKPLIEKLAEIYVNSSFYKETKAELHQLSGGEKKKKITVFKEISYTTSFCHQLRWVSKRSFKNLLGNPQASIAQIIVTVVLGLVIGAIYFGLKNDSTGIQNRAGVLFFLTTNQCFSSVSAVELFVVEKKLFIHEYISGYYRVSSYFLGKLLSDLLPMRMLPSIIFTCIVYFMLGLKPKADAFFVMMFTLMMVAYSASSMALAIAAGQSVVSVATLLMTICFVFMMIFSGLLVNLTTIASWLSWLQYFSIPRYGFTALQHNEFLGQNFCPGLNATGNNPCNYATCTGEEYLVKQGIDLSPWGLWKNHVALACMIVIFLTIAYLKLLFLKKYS

[2] = molecular target: T2, human CK2 holoenzyme (Homo sapiens, UniProt P68400); experiment: biochemical; details: for inhibition at 10 µM: read-out: CK2 inhibition % at 10 µM
T2 sequence (P68400 whole entry): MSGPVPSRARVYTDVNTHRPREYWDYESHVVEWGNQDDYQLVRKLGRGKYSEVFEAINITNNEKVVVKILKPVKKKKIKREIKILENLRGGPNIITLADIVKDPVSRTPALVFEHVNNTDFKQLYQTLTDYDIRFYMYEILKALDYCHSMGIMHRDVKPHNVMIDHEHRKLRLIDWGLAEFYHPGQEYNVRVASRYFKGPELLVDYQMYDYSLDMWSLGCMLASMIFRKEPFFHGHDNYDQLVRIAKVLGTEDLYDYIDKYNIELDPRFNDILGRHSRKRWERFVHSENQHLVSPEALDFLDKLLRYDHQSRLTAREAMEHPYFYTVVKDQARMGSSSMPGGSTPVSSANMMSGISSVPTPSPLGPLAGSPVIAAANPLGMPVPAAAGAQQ
T2 sequence (P67870 whole entry partner): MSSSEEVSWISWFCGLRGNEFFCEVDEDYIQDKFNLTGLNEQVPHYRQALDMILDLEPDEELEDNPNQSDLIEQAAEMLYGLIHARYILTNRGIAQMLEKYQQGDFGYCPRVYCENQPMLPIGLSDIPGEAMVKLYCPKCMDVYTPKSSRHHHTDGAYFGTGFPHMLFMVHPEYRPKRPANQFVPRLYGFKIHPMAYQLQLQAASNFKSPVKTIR

[3] = tested on: Wild-type HEK293 cells; experiment: Intrinsic cytotoxicity, MTT cell-survival assay; details: 72 hours of treatment
[4] = molecular target: T1, ABCG2; experiment: Vanadate-sensitive ATPase activity of ABCG2 in Sf9 insect cell membranes; details: 2 μM compound; for Stimulation of vanadate-sensitive ABCG2 ATPase activity: basal activity without inhibitor taken as 100%
[5] = molecular target: MRP1/ABCC1 (Homo sapiens, UniProt P33527); experiment: Inhibition of MRP1-mediated calcein efflux in HEK293-ABCC1 cells; format: cell-based; details: 2 μM or 10 μM; 35 μM verapamil taken as 100%
Sequence of MRP1/ABCC1 (P33527 whole entry): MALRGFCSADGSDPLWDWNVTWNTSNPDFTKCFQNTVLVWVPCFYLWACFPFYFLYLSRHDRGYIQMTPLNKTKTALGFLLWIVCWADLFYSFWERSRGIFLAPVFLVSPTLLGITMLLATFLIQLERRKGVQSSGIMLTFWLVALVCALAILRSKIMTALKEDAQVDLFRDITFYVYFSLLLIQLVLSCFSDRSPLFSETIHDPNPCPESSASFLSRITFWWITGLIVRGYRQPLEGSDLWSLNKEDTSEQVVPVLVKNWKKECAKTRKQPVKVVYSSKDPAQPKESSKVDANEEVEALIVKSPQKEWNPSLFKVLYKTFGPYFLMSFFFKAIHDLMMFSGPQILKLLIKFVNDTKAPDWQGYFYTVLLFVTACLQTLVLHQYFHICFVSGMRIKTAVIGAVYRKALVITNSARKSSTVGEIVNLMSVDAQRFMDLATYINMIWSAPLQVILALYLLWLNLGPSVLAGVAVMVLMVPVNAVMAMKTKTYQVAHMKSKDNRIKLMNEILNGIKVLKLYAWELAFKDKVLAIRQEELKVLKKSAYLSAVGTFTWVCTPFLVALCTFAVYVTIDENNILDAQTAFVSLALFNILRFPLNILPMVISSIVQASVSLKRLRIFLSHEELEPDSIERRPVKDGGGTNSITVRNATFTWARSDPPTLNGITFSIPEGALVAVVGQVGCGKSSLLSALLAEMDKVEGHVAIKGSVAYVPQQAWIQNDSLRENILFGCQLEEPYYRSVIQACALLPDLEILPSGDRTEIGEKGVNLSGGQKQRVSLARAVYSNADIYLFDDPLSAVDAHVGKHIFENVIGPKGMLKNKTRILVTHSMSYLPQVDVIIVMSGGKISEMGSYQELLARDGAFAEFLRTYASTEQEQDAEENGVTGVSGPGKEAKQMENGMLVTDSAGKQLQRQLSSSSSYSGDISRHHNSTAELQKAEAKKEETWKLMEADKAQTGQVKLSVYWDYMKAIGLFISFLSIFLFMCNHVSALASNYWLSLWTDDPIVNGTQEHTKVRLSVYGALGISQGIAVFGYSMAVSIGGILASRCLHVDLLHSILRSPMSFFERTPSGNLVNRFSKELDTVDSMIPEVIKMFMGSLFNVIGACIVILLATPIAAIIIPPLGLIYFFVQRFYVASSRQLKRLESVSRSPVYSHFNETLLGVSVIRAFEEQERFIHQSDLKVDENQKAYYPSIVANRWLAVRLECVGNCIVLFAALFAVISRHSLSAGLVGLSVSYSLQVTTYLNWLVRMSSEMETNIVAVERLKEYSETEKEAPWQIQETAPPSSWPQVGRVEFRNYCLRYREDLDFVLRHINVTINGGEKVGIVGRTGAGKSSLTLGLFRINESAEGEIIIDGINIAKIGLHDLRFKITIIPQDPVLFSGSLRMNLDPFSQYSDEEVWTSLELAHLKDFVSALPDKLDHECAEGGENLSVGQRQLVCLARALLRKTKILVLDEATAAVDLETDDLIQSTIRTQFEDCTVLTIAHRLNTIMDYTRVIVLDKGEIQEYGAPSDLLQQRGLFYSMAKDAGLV

[6] = molecular target: T2, human CK2 holoenzyme; details: IC50 (CK2) divided by IC50 (ABCG2) of Table 1

| SMILES | IC50 [1] [µM] | IC50 [2] [µM] | inhibition at 10 µM [2] [%] | Cytotoxicity IG50 [3] [µM] | Effect on ABCG2 basal ATPase activity [4] | Inhibition of MRP1-mediated calcein efflux [5] | Stimulation of vanadate-sensitive ABCG2 ATPase activity [4] | AGCG2/CK2 [6] |
| --- | --- | --- | --- | --- | --- | --- | --- | --- |
| O=c1cc(-c2ccccc2)c(=O)c2c1c1c(=O)c3ccccc3c1n2Cc1ccccc1 [Compound 6e, 5-Benzyl-7-phenyl-5H-indeno[1,2-b]indole-6,9,10-trione] | ~13 | ~13 | 40 | 7.1 ± 1.1 | did not produce any effect |  |  |  |
| Cc1cc(O)c2c3c(n(CCc4ccccc4)c2c1)-c1ccccc1C3=O [Compound 5f, 9-Hydroxy-7-methyl-5-(2-phenylethyl)-5H-indeno[1,2-b]indole-10-one] | 0.16 ± 0.01 |  |  | 42.3 ± 2.8 |  | very limited, if any, inhibition | 2- to 4.5 fold |  |
| COc1cccc(CCn2c3c(c4c(O)cccc42)C(=O)c2ccccc2-3)c1 [Compound 5i, 9-Hydroxy-5-[2-(3-methoxyphenyl)ethyl]-5H-indeno[1,2-b]indole-10-one] | 0.37 ± 0.09 | ~11.5 | 44 | 45.7 ± 6.1 |  |  | 2- to 4.5 fold |  |
| O=c1cc(-c2ccccc2)c(=O)c2c1c1c(=O)c3ccccc3c1n2CCc1ccccc1 [Compound 6g, 7-Phenyl-5-(2-phenylethyl)-5H-indeno[1,2-b]indole-6,9,10-trione] | 0.43 ± 0.01 | ~11.5 | 44 | 3.7 ± 2.2 | very limited stimulation | very limited, if any, inhibition |  |  |
| O=C1c2ccccc2-c2c1c1c(O)cccc1n2CCCc1ccccc1 [Compound 5d, 9-Hydroxy-5-(3-phenylpropyl)-5H-indeno[1,2-b]indole-10-one] | 0.64 ± 0.23 | ~20 | 27 |  |  |  | 2- to 4.5 fold |  |
| COc1ccccc1CCn1c2c(c3c(O)cccc31)C(=O)c1ccccc1-2 [Compound 5h, 9-Hydroxy-5-[2-(2-methoxyphenyl)ethyl]-5H-indeno[1,2-b]indole-10-one] | 0.15 ± 0.01 | 1.3 |  | 54 ± 14 |  | very limited, if any, inhibition | 2- to 4.5 fold |  |
| COc1ccc(CCn2c3c(c4c(O)cccc42)C(=O)c2ccccc2-3)cc1 [Compound 5j, 9-Hydroxy-5-[2-(4-methoxyphenyl)ethyl]-5H-indeno[1,2-b]indole-10-one] | 0.2 ± 0.01 | ~14 |  |  | maximal stimulation |  | 2- to 4.5 fold |  |
| O=C1c2ccccc2-c2c1c1c(O)cc(-c3ccccc3)cc1n2CCc1ccccc1 [Compound 5g, 9-Hydroxy-7-phenyl-5-(2-phenylethyl)-5H-indeno[1,2-b]indole-10-one] | 0.51 ± 0.09 | ~11 |  |  |  |  | 2- to 4.5 fold |  |
| O=c1ccc(=O)c2c1c1c(=O)c3ccccc3c1n2CCc1ccccc1 [Compound 6c, 5-(2-Phenylethyl)-5H-indeno[1,2-b]indole-6,9,10-trione] | ~30 | ~13 | 40 | 6.9 ± 2.1 | did not produce any effect |  |  |  |
| O=C1c2ccccc2-c2c1c1c(O)cccc1n2CCc1ccccc1 [Compound 5c, 9-Hydroxy-5-(2-phenylethyl)-5H-indeno[1,2-b]indole-10-one] | 0.16 ± 0.02 | 7.5 | 57 | 42.7 ± 9.7 |  | very limited, if any, inhibition | 2- to 4.5 fold | 47 |
| O=c1ccc(=O)c2c1c1c(=O)c3ccccc3c1n2CCCc1ccccc1 [Compound 6d, 5-(3-Phenylpropyl)-5H-indeno[1,2-b] indole-6,9,10-trione] | ~15 | 6.4 | 60 | 6.8 ± 0.5 |  |  |  |  |
| Cc1cc(=O)c2c3c(=O)c4ccccc4c3n(CCc3ccccc3)c2c1=O [Compound 6f, 7-Methyl-5-(2-phenylethyl)-5H-indeno[1,2-b]indole-6,9,10-trione] | 0.84 ± 0.31 |  |  | 15.6 ± 5.9 | did not produce any effect | very limited, if any, inhibition |  |  |
